# Experimental data reported in patent US20110053872A1, “Pharmaceutical Composition For Preventing And Treating Diabetic Nephropathy And The Preparation Method Thereof” (GUANGZHOU CONSUN MEDICINE R & D CO., LTD., priority 2009, published 2011).
# Experiments:
# [1] = tested on: DN model Wistar rats induced by streptozotocin; assay: STZ DN model rat: serum biochemical indicators; assay type: in vivo; design: AGEs (advanced glycosylation end products): unit not given here
# Experimental: (§1) The DN model Wistar rats were randomly divided into […] with 10 rats each group as indicated: normal glucose group; model group; CAL group (6, 2, 0.7 mg/kg); CAG group (9, 3, 1 mg/kg); CAL+CAG group (CAL:CAG, 2 mg/kg:1 mg/kg, 1 mg/kg:2 mg/kg); Radix Astragali group (5 g/kg); Aminoguanidine group (100 mg/kg).
# (§2) The drugs or sodium chloride were intragastric adminstrated once each day for 14 weeks. After the administration, the total volume urine was collected by metabolic cage. The contents of urinary production, total protein, microalbumin and creatinine were determinated, and the biochemical indicators in blood was determinated using automatic biochemical analyzer. Then the kideny with fog Hahn fixation was reserved for histopathological examination.
# [2] = tested on: DN model Wistar rats induced by streptozotocin; assay: STZ DN model rat: pathohistological indicators; assay type: in vivo; settings: kidney
# Experimental: as §1, §2
# [3] = tested on: Rat mesangial cell line HBZY21; assay: AGEs-induced rat mesangial cell proliferation (MTT reduction assay); assay type: cell-based; settings: 0.25 mg/ml AGEs, 24 h
# Experimental: (§3) The mesangial cells in their exponential growth phase were cultured in 96-well plates at densities of 50000 cm^−2 in DMEM (5 mM glucose) at 37° C. in 5% CO2-95% air for 24 h. After pre-incubation in DMEM supplemented without fetal calf serum for 24 h, cells were then treated with various concentrations of glucose or AGEs for 24 h, 48 h, 72 h, 96 h, respectively.
# (§4) Cells were pretreated with 0.25 mg/mlAGEs, then were treated with various concentrations of reagents as indicated: normal glucose group (NG, 5.5 mM glucose); AGEs group (AGEs, 0.25 mg/mlAGEs); CAL group (CAL, 10, 100 nM); CAG group (CAG, 10, 100 nM); CAL+CAG group (CAL:CAG, 10 μg/ml:5 μg/ml, 5 μg/ml:10 μg/ml); Radix Astragali group (RA, 50 mg/ml aqueous extract). The plates were then incubated for 24 h. Proliferation was examined by MTT reduction assay. Experimental conditions were tested in sextuplicate (six wells of the 96-well plate per experimental condition).
# [4] = tested on: DN model Wistar rats induced by streptozotocin; assay: STZ DN model rat: urinary production, total protein, microalbumin and creatinine; assay type: in vivo; settings: for Microalbumin: urine
# Experimental: as §1, §2
# rat mesangial cells [5] = assay: Content of hydroxyproline in cell culture fluid of rat mesangial cells induced by high glucose; assay type: cell-based; settings: high glucose (25 mM)
# Experimental: (§5) The treatment was the same as section 2.1 in Experiment 1. The measurement of matrix proliferation was measured by determinating the content of hydroxyproline and the expression of TGFβ-1.
# (§6) The coverslips were pre-placed in the 24-wells plates to stick the cells. The cells were treated with various concentrations of reagents as indicated in Experiment 1. After the cells covered with coverslip, the supernatant was used for the determination of hydroxyproline and the slides of cells were treated with stained with immunohistochemical and PAS staining. The cells cultured without TGFβ-1 antibody were taken as the negative control.
# [6] = tested on: Rat mesangial cell line HBZY21; assay: High glucose-induced rat mesangial cell proliferation (MTT reduction assay); assay type: cell-based; settings: 25 mM glucose, 24 h
# Experimental: as §3
# as §4, with “According to the aboved method, after pre-incubation in DMEM supplemented without fetal calf serum for 24 h, cells” for “Cells”, “25 mM glucose,” for “0.25 mg/mlAGEs,”, “high glucose” for “AGEs”, “(HG, 25 mM glucose);” for “(AGEs, 0.25 mg/mlAGEs);”
# rat mesangial cells [7] = assay: ECM accrementition induced by high glucose (PAS staining, FIG. 1); assay type: cell-based; settings: 25 mM glucose
# Experimental: wherein A: normal glucose group; B: high glucose group (25 mM); C: Radix Astragali group (RA, 50 mg/ml aqueous extract); D: CAL group (100 nM); E: CAL group (10 nM); F: CAL group (1 nM); G: CAG group (100 nM); H: CAG group (10 nM); I: CAG group (1 nM); J: CAL:CAG group (10 μg/ml:5 μg/ml). K: CAL:CAG group ([…]:10 μg/ml).
# as §5, §6
# TGFβ-1 = TGFβ-1 expression induced by high glucose (immunohistochemical staining, FIG. 2); assay type: cell-based, rat; settings: 25 mM glucose
# Experimental: wherein A: normal glucose group; B: high glucose group (25 mM); C: negative control group; D: CAL group (100 nM); E: CAL group (10 nM); F: CAL group (1 nM); G: CAG group (100 nM); H: CAG group (10 nM); I: CAG group (1 nM); J: Radix Astragali group (RA, 50 mg/ml aqueous extract); K: CAL:CAG group (10 μg/ml:5 μg/ml); L: CAL:CAG group (5 μg/ml:10 μg/ml).
# as §5, §6
# [8] = 0.7 mg/kg intragastric once each day for 14 weeks
# [9] = 2 mg/kg intragastric once each day for 14 weeks
# [10] = 6 mg/kg intragastric once each day for 14 weeks
smiles,measurement,setting,value
COc1ccc(-c2coc3cc(O)ccc3c2=O)cc1O [CAL],AGEs (advanced glycosylation end products),[1]; [8],290 ± 59
same,BUN (Blood urea nitrogen),[1]; [8],7.0 ± 1.0 mmol/L
same,LDL,[1]; [8],1.91 ± 0.55 mmol/L
same,MDA (malonaldehyde),[1]; [8],7.8 ± 2.3 nmol/mL
same,SOD (superoxide dismutase),[1]; [8],498 ± 33 U/ml
same,Scr (serum creatinine),[1]; [8],91.0 ± 31.1 µmol/L
same,triglyceride,[1]; [8],3.23 ± 0.76 mmol/L
same,AGEs (advanced glycosylation end products),[1]; [9],289 ± 56
same,BUN (Blood urea nitrogen),[1]; [9],6.6 ± 1.2 mmol/L
same,LDL,[1]; [9],1.51 ± 0.53 mmol/L
same,MDA (malonaldehyde),[1]; [9],6.8 ± 1.9 nmol/mL
same,SOD (superoxide dismutase),[1]; [9],513 ± 41 U/ml
same,Scr (serum creatinine),[1]; [9],76.6 ± 24.5 µmol/L
same,triglyceride,[1]; [9],2.76 ± 0.80 mmol/L
same,AGEs (advanced glycosylation end products),[1]; [10],281 ± 78
same,BUN (Blood urea nitrogen),[1]; [10],6.5 ± 1.5 mmol/L
same,LDL,[1]; [10],1.43 ± 0.36 mmol/L
same,MDA (malonaldehyde),[1]; [10],6.8 ± 1.3 nmol/mL
same,SOD (superoxide dismutase),[1]; [10],520 ± 29 U/ml
same,Scr (serum creatinine),[1]; [10],75.2 ± 17.1 µmol/L
same,triglyceride,[1]; [10],2.57 ± 0.80 mmol/L
same,ECM score (PAS %),[2]; [8],33.1 ± 5.1%
same,Patho-score,[2]; [8],2.7 ± 1.0
same,TGFβ-1 (%),[2]; [8],19.3 ± 6.3 %
same,ECM score (PAS %),[2]; [9],29.8 ± 5.6 %
same,Patho-score,[2]; [9],1.8 ± 1.3
same,TGFβ-1 (%),[2]; [9],17.6 ± 5.8 %
same,ECM score (PAS %),[2]; [10],27.0 ± 5.5 %
same,Patho-score,[2]; [10],1.6 ± 1.1
same,TGFβ-1 (%),[2]; [10],8.8 ± 3.2 %
same,OD value (λ = 490 nm),[3]; 10 nM,0.42 ± 0.04
same,OD value (λ = 490 nm),[3]; 100 nM,0.34 ± 0.04
same,Urinary production,[4]; [8],59.9 ± 21.8 mL
same,Urine creatinine,[4]; [8],1.4 ± 0.6 mM
same,Urine protein,[4]; [8],69.1 ± 20.4 mg
same,Urinary production,[4]; [9],41.3 ± 16.8 mL
same,Urine creatinine,[4]; [9],2.9 ± 1.2 mM
same,Urine protein,[4]; [9],54.0 ± 17.4 mg
same,Urinary production,[4]; [10],35.9 ± 22.2 mL
same,Urine creatinine,[4]; [10],4.3 ± 2.0 mM
same,Urine protein,[4]; [10],46.2 ± 21.3 mg
same,Microalbumin,[4]; [8],1.57 ± 0.56 mg
same,Microalbumin,[4]; [9],0.93 ± 0.55 mg
same,Microalbumin,[4]; [10],0.92 ± 0.42 mg
same,Content of hydroxyproline in cell culture fluid,rat mesangial cells [5]; 10 nM,7.15 ± 1.19 µg/mL
same,Content of hydroxyproline in cell culture fluid,rat mesangial cells [5]; 100 nM,6.65 ± 1.74 µg/mL
same,OD value (λ = 490 nm),[6]; 10 nM,0.34 ± 0.02
same,OD value (λ = 490 nm),[6]; 100 nM,0.33 ± 0.05
same,ECM accrementition induced by high glucose,rat mesangial cells [7],inhibited
same,expression of TGFβ-1 induced by high glucose,TGFβ-1,inhibited
